Measurements as given in ChEMBL document CHEMBL4706559, “New indolylarylsulfone non-nucleoside reverse transcriptase inhibitors show low nanomolar inhibition of single and double HIV-1 mutant strains” (Eur J Med Chem, 2020).
pEC50, pIC50: −log10 of the molar value.

System: Human immunodeficiency virus 1
Experiment: Antiviral activity against HIV1 harboring RT K103N/Y181C double mutant infected in human MT4 cells assessed as protection against virus-induced cytopathic effect by MTT assay
Assay type: functional, organism-based
Settings: Human immunodeficiency virus 1, MT4
`Cc1cc(C)cc(S(=O)(=O)c2c(C(=O)NCc3ccc(CO)cc3)[nH]c3ccc(Cl)cc23)c1` showed a pEC50 of 5.48.
In the case of `Cc1cc(C)cc(S(=O)(=O)c2c(C(=O)NCc3cccc(O)c3)[nH]c3ccccc23)c1`, the pEC50 was 5.74.
In the case of `Cc1cc(C)cc(S(=O)(=O)c2c(C(=O)NC(C)c3ccccc3O)[nH]c3ccc(Cl)cc23)c1` (stereo not given), the pEC50 was 6.18.
In the case of `Cc1cc(C)cc(S(=O)(=O)c2c(C(=O)Nc3ccc(CO)cc3)[nH]c3ccc(Cl)cc23)c1`, the pEC50 was 4.71.
`Cc1cc(C)cc(S(=O)(=O)c2c(C(=O)NCC(=O)NCc3ccccc3O)[nH]c3ccc(Cl)cc23)c1` gave a pEC50 of 5.34.
Work on `Cc1cc(C)cc(S(=O)(=O)c2c(C(=O)NCCc3ccccc3O)[nH]c3ccc(Cl)cc23)c1` yielded a pEC50 of 6.48.

System: Human immunodeficiency virus 1
Experiment: Antiviral activity against HIV1 harboring RT K103N mutant infected in human MT4 cells assessed as protection against virus-induced cytopathic effect by MTT assay
Assay type: functional, organism-based
Settings: Human immunodeficiency virus 1, MT4
`Cc1cc(C)cc(S(=O)(=O)c2c(C(=O)NCc3ccc(CO)cc3)[nH]c3ccc(Cl)cc23)c1` showed a pEC50 greater than 9.15.
`Cc1cc(C)cc(S(=O)(=O)c2c(C(=O)NCc3cccc(O)c3)[nH]c3ccccc23)c1` gave a pEC50 greater than 9.15.
`Cc1cc(C)cc(S(=O)(=O)c2c(C(=O)NC(C)c3ccccc3O)[nH]c3ccc(Cl)cc23)c1` (stereo not given) showed a pEC50 greater than 9.15.
With `Cc1cc(C)cc(S(=O)(=O)c2c(C(=O)Nc3ccc(CO)cc3)[nH]c3ccc(Cl)cc23)c1` the pEC50 was greater than 9.15.
In the case of `Cc1cc(C)cc(S(=O)(=O)c2c(C(=O)NCC(=O)NCc3ccccc3O)[nH]c3ccc(Cl)cc23)c1`, the pEC50 was 6.82.
`Cc1cc(C)cc(S(=O)(=O)c2c(C(=O)NCCc3ccccc3O)[nH]c3ccc(Cl)cc23)c1` gave a pEC50 greater than 9.15.

System: Human immunodeficiency virus 1
Experiment: Antiviral activity against HIV1 harboring RT Y181C mutant infected in human MT4 cells assessed as protection against virus-induced cytopathic effect by MTT assay
Assay type: functional, organism-based
Settings: Human immunodeficiency virus 1, MT4
`Cc1cc(C)cc(S(=O)(=O)c2c(C(=O)NCc3ccc(CO)cc3)[nH]c3ccc(Cl)cc23)c1` gave a pEC50 of 7.66.
`Cc1cc(C)cc(S(=O)(=O)c2c(C(=O)NCc3cccc(O)c3)[nH]c3ccccc23)c1` showed a pEC50 of 7.68.
`Cc1cc(C)cc(S(=O)(=O)c2c(C(=O)NC(C)c3ccccc3O)[nH]c3ccc(Cl)cc23)c1` (stereo not given) showed a pEC50 of 7.72.
`Cc1cc(C)cc(S(=O)(=O)c2c(C(=O)Nc3ccc(CO)cc3)[nH]c3ccc(Cl)cc23)c1` gave a pEC50 of 7.66.
With `Cc1cc(C)cc(S(=O)(=O)c2c(C(=O)NCC(=O)NCc3ccccc3O)[nH]c3ccc(Cl)cc23)c1` the pEC50 was 8.72.
Work on `Cc1cc(C)cc(S(=O)(=O)c2c(C(=O)NCCc3ccccc3O)[nH]c3ccc(Cl)cc23)c1` yielded a pEC50 greater than 9.15.

Target: not listed separately
Experiment: Inhibition of RNA-dependent DNA polymerase activity of recombinant HIV-1 p66/p51 reverse transcriptase Y188L mutant assessed as inhibition of [3H]dTTP incorporation using poly(rA)/oligo(dT) as templates incubated for 15 mins by MicroBeta scintillation counting method
Design: species or system Human immunodeficiency virus 1
Settings: not given
`Cc1cc(C)cc(S(=O)(=O)c2c(C(=O)NCc3ccc(CO)cc3)[nH]c3ccc(Cl)cc23)c1` showed a pIC50 of 6.75.

System: Human immunodeficiency virus 1
Experiment: Resistance index, ratio of EC50 for antiviral activity against HIV1 harboring RT Y188L mutant infected in human MT4 cells to EC50 for antiviral activity against HIV1 NL4-3 infected in human MT4 cells
Assay type: functional
Settings: not given
For `Cc1cc(C)cc(S(=O)(=O)c2c(C(=O)NCc3cccc(O)c3)[nH]c3ccccc23)c1`, the “Ratio EC50” value was greater than 1808.
For `Cc1cc(C)cc(S(=O)(=O)c2c(C(=O)NC(C)c3ccccc3O)[nH]c3ccc(Cl)cc23)c1` (stereo not given), the “Ratio EC50” value was greater than 270.
With `Cc1cc(C)cc(S(=O)(=O)c2c(C(=O)NCC(=O)NCc3ccccc3O)[nH]c3ccc(Cl)cc23)c1` the “Ratio EC50” value was greater than 2.8.
With `Cc1cc(C)cc(S(=O)(=O)c2c(C(=O)NCCc3ccccc3O)[nH]c3ccc(Cl)cc23)c1` the “Ratio EC50” value was greater than 296.

System: Human immunodeficiency virus 1
Experiment: Resistance index, ratio of EC50 for antiviral activity against HIV1 harboring RT K103N/Y181C double mutant infected in human MT4 cells to EC50 for antiviral activity against HIV1 NL4-3 infected in human MT4 cells
Assay type: functional
Settings: not given
For `Cc1cc(C)cc(S(=O)(=O)c2c(C(=O)NCc3ccc(CO)cc3)[nH]c3ccc(Cl)cc23)c1`, the “Ratio EC50” value was greater than 4703.
In the case of `Cc1cc(C)cc(S(=O)(=O)c2c(C(=O)NCc3cccc(O)c3)[nH]c3ccccc23)c1`, the “Ratio EC50” value was greater than 2584.
For `Cc1cc(C)cc(S(=O)(=O)c2c(C(=O)NC(C)c3ccccc3O)[nH]c3ccc(Cl)cc23)c1` (stereo not given), the “Ratio EC50” value was greater than 946.
For `Cc1cc(C)cc(S(=O)(=O)c2c(C(=O)Nc3ccc(CO)cc3)[nH]c3ccc(Cl)cc23)c1`, the “Ratio EC50” value was greater than 27904.
In the case of `Cc1cc(C)cc(S(=O)(=O)c2c(C(=O)NCC(=O)NCc3ccccc3O)[nH]c3ccc(Cl)cc23)c1`, the “Ratio EC50” value was greater than 7701.
With `Cc1cc(C)cc(S(=O)(=O)c2c(C(=O)NCCc3ccccc3O)[nH]c3ccc(Cl)cc23)c1` the “Ratio EC50” value was greater than 473.

Target: Human immunodeficiency virus type 1 reverse transcriptase (Human immunodeficiency virus 1, UniProt Q72547)
Experiment: Inhibition of RNA-dependent DNA polymerase activity of wild type recombinant HIV-1 His-tagged p66/p51 reverse transcriptase assessed as inhibition of [3H]dTTP incorporation using poly(rA)/oligo(dT) as templates incubated for 15 mins by MicroBeta scintillation counting method
Settings: not given
For `Cc1cc(C)cc(S(=O)(=O)c2c(C(=O)NCc3ccc(CO)cc3)[nH]c3ccc(Cl)cc23)c1`, the pIC50 was 7.42.

System: Human immunodeficiency virus 1
Experiment: Resistance index, ratio of EC50 for antiviral activity against HIV1 harboring RT K103N mutant infected in human MT4 cells to EC50 for antiviral activity against HIV1 NL4-3 infected in human MT4 cells
Assay type: functional
Settings: not given
With `Cc1cc(C)cc(S(=O)(=O)c2c(C(=O)NCC(=O)NCc3ccccc3O)[nH]c3ccc(Cl)cc23)c1` the “Ratio EC50” value was greater than 251.

Target: not listed separately
Experiment: Inhibition of RNA-dependent DNA polymerase activity of recombinant HIV-1 p66/p51 reverse transcriptase K103N/Y181C mutant assessed as inhibition of [3H]dTTP incorporation using poly(rA)/oligo(dT) as templates incubated for 15 mins by MicroBeta scintillation counting method
Design: species or system Human immunodeficiency virus 1
Settings: not given
Compound `Cc1cc(C)cc(S(=O)(=O)c2c(C(=O)NCc3ccc(CO)cc3)[nH]c3ccc(Cl)cc23)c1` has a pIC50 of 6.73.

System: Human immunodeficiency virus 1
Experiment: Resistance index, ratio of EC50 for antiviral activity against HIV1 harboring RT Y181C mutant infected in human MT4 cells to EC50 for antiviral activity against HIV1 NL4-3 infected in human MT4 cells
Assay type: functional
Settings: not given
With `Cc1cc(C)cc(S(=O)(=O)c2c(C(=O)NCc3ccc(CO)cc3)[nH]c3ccc(Cl)cc23)c1` the “Ratio EC50” value was greater than 31.
With `Cc1cc(C)cc(S(=O)(=O)c2c(C(=O)NCc3cccc(O)c3)[nH]c3ccccc23)c1` the “Ratio EC50” value was greater than 30.
With `Cc1cc(C)cc(S(=O)(=O)c2c(C(=O)NC(C)c3ccccc3O)[nH]c3ccc(Cl)cc23)c1` (stereo not given) the “Ratio EC50” value was greater than 27.
For `Cc1cc(C)cc(S(=O)(=O)c2c(C(=O)Nc3ccc(CO)cc3)[nH]c3ccc(Cl)cc23)c1`, the “Ratio EC50” value was greater than 31.
In the case of `Cc1cc(C)cc(S(=O)(=O)c2c(C(=O)NCC(=O)NCc3ccccc3O)[nH]c3ccc(Cl)cc23)c1`, the “Ratio EC50” value was greater than 3.2.

System: not listed separately
Experiment: Cytotoxicity against human MT-4 cells assessed as reduction in cell viability by MTT assay
Assay type: cell-based, MT4
Settings: not given
Compound `Cc1cc(C)cc(S(=O)(=O)c2c(C(=O)NCc3ccc(CO)cc3)[nH]c3ccc(Cl)cc23)c1` has a CC50 of 31100 nM.
Work on `Cc1cc(C)cc(S(=O)(=O)c2c(C(=O)NCc3cccc(O)c3)[nH]c3ccccc23)c1` yielded a CC50 greater than 5200 nM.
For `Cc1cc(C)cc(S(=O)(=O)c2c(C(=O)NC(C)c3ccccc3O)[nH]c3ccc(Cl)cc23)c1` (stereo not given), the CC50 was 21800 nM.
With `Cc1cc(C)cc(S(=O)(=O)c2c(C(=O)Nc3ccc(CO)cc3)[nH]c3ccc(Cl)cc23)c1` the CC50 was 39600 nM.
`Cc1cc(C)cc(S(=O)(=O)c2c(C(=O)NCC(=O)NCc3ccccc3O)[nH]c3ccc(Cl)cc23)c1` gave a CC50 greater than 47300 nM.
Work on `Cc1cc(C)cc(S(=O)(=O)c2c(C(=O)NCCc3ccccc3O)[nH]c3ccc(Cl)cc23)c1` yielded a CC50 of 23800 nM.

System: not listed separately
Experiment: Selectivity ratio of CC50 for human MT4 cells to EC50 for antiviral activity against HIV-1 NL4-3 infected in human MT4 cells
Assay type: toxicity, cell-based
Settings: read-out: Ratio CC50/EC50
Compound `Cc1cc(C)cc(S(=O)(=O)c2c(C(=O)NCc3ccc(CO)cc3)[nH]c3ccc(Cl)cc23)c1` has a selectivity ratio greater than 44400.
`Cc1cc(C)cc(S(=O)(=O)c2c(C(=O)NCc3cccc(O)c3)[nH]c3ccccc23)c1` gave a selectivity ratio greater than 3640.
Compound `Cc1cc(C)cc(S(=O)(=O)c2c(C(=O)NC(C)c3ccccc3O)[nH]c3ccc(Cl)cc23)c1` (stereo not given) has a selectivity ratio of 31100.
With `Cc1cc(C)cc(S(=O)(=O)c2c(C(=O)Nc3ccc(CO)cc3)[nH]c3ccc(Cl)cc23)c1` the selectivity ratio was greater than 56600.
`Cc1cc(C)cc(S(=O)(=O)c2c(C(=O)NCC(=O)NCc3ccccc3O)[nH]c3ccc(Cl)cc23)c1` showed a selectivity ratio greater than 78900.
Compound `Cc1cc(C)cc(S(=O)(=O)c2c(C(=O)NCCc3ccccc3O)[nH]c3ccc(Cl)cc23)c1` has a selectivity ratio greater than 34000.

System: Human immunodeficiency virus 1
Experiment: Antiviral activity against HIV-1 NL4-3 infected in human MT-4 cells assessed as virus induced cytopathic effect by MTT assay
Assay type: functional, organism-based
Settings: Human immunodeficiency virus 1, NL4-3, MT4
In the case of `Cc1cc(C)cc(S(=O)(=O)c2c(C(=O)NCc3ccc(CO)cc3)[nH]c3ccc(Cl)cc23)c1`, the pEC50 was greater than 9.15.
For `Cc1cc(C)cc(S(=O)(=O)c2c(C(=O)NCc3cccc(O)c3)[nH]c3ccccc23)c1`, the pEC50 was greater than 9.15.
Compound `Cc1cc(C)cc(S(=O)(=O)c2c(C(=O)NC(C)c3ccccc3O)[nH]c3ccc(Cl)cc23)c1` (stereo not given) has a pEC50 greater than 9.15.
Compound `Cc1cc(C)cc(S(=O)(=O)c2c(C(=O)Nc3ccc(CO)cc3)[nH]c3ccc(Cl)cc23)c1` has a pEC50 greater than 9.15.
Compound `Cc1cc(C)cc(S(=O)(=O)c2c(C(=O)NCC(=O)NCc3ccccc3O)[nH]c3ccc(Cl)cc23)c1` has a pEC50 greater than 9.22.
In the case of `Cc1cc(C)cc(S(=O)(=O)c2c(C(=O)NCCc3ccccc3O)[nH]c3ccc(Cl)cc23)c1`, the pEC50 was greater than 9.15.

System: Human immunodeficiency virus 1
Experiment: Antiviral activity against HIV1 harboring RT Y188L mutant infected in human MT4 cells assessed as protection against virus-induced cytopathic effect by MTT assay
Assay type: functional, organism-based
Settings: Human immunodeficiency virus 1, MT4
Work on `Cc1cc(C)cc(S(=O)(=O)c2c(C(=O)NCc3cccc(O)c3)[nH]c3ccccc23)c1` yielded a pEC50 of 5.90.
Compound `Cc1cc(C)cc(S(=O)(=O)c2c(C(=O)NC(C)c3ccccc3O)[nH]c3ccc(Cl)cc23)c1` (stereo not given) has a pEC50 of 6.72.
`Cc1cc(C)cc(S(=O)(=O)c2c(C(=O)NCC(=O)NCc3ccccc3O)[nH]c3ccc(Cl)cc23)c1` gave a pEC50 of 8.77.
For `Cc1cc(C)cc(S(=O)(=O)c2c(C(=O)NCCc3ccccc3O)[nH]c3ccc(Cl)cc23)c1`, the pEC50 was 6.68.

Target: Human immunodeficiency virus type 1 reverse transcriptase (Human immunodeficiency virus 1, UniProt Q72547, K103N)
Experiment: Inhibition of RNA-dependent DNA polymerase activity of recombinant HIV-1 p66/p51 reverse transcriptase K103N mutant assessed as inhibition of [3H]dTTP incorporation using poly(rA)/oligo(dT) as templates incubated for 15 mins by MicroBeta scintillation counting method
Settings: not given
Compound `Cc1cc(C)cc(S(=O)(=O)c2c(C(=O)NCc3ccc(CO)cc3)[nH]c3ccc(Cl)cc23)c1` has a pIC50 of 7.10.
